# Measurements: patent publication US9650338B1 (priority 2016, dated 2017)
# Experiments:
# [1] = test system: respiratory depression caused by LD50 of Promedol (Trimeperidine); experiment: Antagonism of respiratory depression caused by LD50 of Promedol; conditions: rat, Promedol (Trimeperidine) 70 mg/kg (LD50)
# [2] = molecular target: opiate receptor sites in the CNS; experiment: Competitive binding to opiate receptor sites in the CNS, rat brain, 3H-Naloxone
# [3] = molecular target: opiate receptor sites in the CNS; experiment: Competitive binding to opiate receptor sites in the CNS, mouse brain; conditions: Brain of the mouse (Table 5, mean; spread in a separate column)
# [4] = test system: analgesic effects of the ED99 of morphine; experiment: Antagonism of the analgesic effect of the ED99 of morphine, mechanical irritation of the tail; conditions: rat, under skin injection, morphine 5 mg/kg (ED99)
SMILES,Median Antagonistic activity AD50 (parenthetical is range) [1],"IC50 ([2]; Brain of the rate (Table 5, mean; spread in a separate column), read-out: IC50)","IC50 ([2]; brain of the rat, 3H-Naloxone (Table 4), read-out: Affinity IC50)",IC50 [3],Median Antagonistic activity AD50 (parenthetical is range) [4]
"CCC(=O)NC1CC(C)N(CCc2ccccc2)CC1C (stereo not shown) [N-[2,5-dimethyl-1-(2-phenylethyl)piperidin-4-yl]propanamide]",5.1 (3.4-7.8) mg/kg,0.12 nM,0.12 nM,0.1 nM,1.2 (0.8-1.64) mg/kg
"C=CCN1CC[C@]23c4c5ccc(O)c4O[C@H]2C(=O)CC[C@@]3(O)[C@H]1C5 [naloxone, 17-allyl-4,5a-epoxy-3,14-dihydroxymorphinan-6-one, reference compound]",1.8 (1.1-3.2) mg/kg,,,,0.3 (0.22-0.39) mg/kg
